Where two headings read alike, the source gives them in different places.
Key:
[1] = tested on: A549 cells; experiment: ATP release into extracellular fluid or after lysis buffer, with or without Triton X, after PFA; assay type: cell-based
Protocol: In a factorial design, the cells were a) treated with 0%, 0.2%, or 1% PFA, and b) treated with or without 0.5% Triton X. ATP was then measured either from the extracellular fluids or within the wells after the use of a cell lysis buffer.
One out of 3 wells were incubated with 0%, 0.2%, and 1% PFA for 15 minutes and PFA was washed out 3 times with PBS. Half of the wells were then treated with 0.5% Triton X for 10 minutes and the other half received no Triton. The extracellular fluid from half of the 0.5% Triton X treated wells was then transferred to another well-plate and ATP was measured using a luciferin/luciferase complex. The other half of the 0.5% Triton X treated wells were first treated with a lysis buffer and then ATP was measured using the same luciferin/luciferase complex.

[2] = tested on: A549 cells
Protocol: Furthermore, since serum contains proteins, we wanted to know whether incubating and washing with serum could neutralize any potentially residual effect of PFA on ATP measurements. Thus, we created a 4×4 factorial design to expose the cells with 0.0625%, 0.25%, 1%, or 4% of PFA and 0%, 1%, 5%, or 25% of human serum.
For this experiment, A549 cells were plated in 96-well plates with 4 replicates of in 100 μl per well (cell culture medium was DMEM/F12 plus 10% human serum). Cells were fixed with the PFA concentrations for 5 min and washed 3× with phosphate-buffered saline (PBS).
The cells were then incubated at various serum concentrations for 10 min and then washed twice with PBS. Finally, luciferase catalyzed ATP luminescence was measured as per manufacturer's instructions.

[3] = tested on: luciferase
Protocol: We assessed four groups of A549 cells: with 0.0625% PFA, 0.25% PFA, 1% PFA, and 4% PFA, each of them at 0%, 1%, 5%, or 25% of human serum. For each group, A549 cells were plated in 96 well plates with 4 replicates of 1,000 cells at 100 μl per well. The cell culture medium was DMEM/F12 plus 10% human serum. Luciferase-catalyzed ATP luminescence was then measured using the CellTiter-Glo assay per manufacturer's instructions.
A combination of PFA and serum mixture was then created using a 4×4 factorial design of 0.0625%, 0.25%, 1%, or 4% of PFA, and 0%, 1%, 5%, or 25% of human serum, and incubated for 15 min at room temperature. The mixture was then added to the wells and a second round of RLU measurements were taken within 5 min.

[4] = tested on: A549 cells; settings: 2% or 4% PFA for 15 min, thoroughly washed out
Protocol: An experiment was therefore conducted to see what if any effect PFA had on cellular ATP content and whether it would still be possible to detect ATP in fixed tissue/cells. Four groups of cells were tested: • Group 1 was not pretreated with PFA (control). • Group 2 was treated with 2% PFA. • Group 3 was pretreated with 2% PFA that was then washed out. • Group 4 was pretreated with 4% PFA that was then washed out.
The experiment was conducted as follows. For each group, A549 cells (Catalog No. CCL-185, ATCC, Manassas, VA, USA) were plated in 96-well plates (200 μl/well) with 8 replicates of 1,000 cells in 50 μl cell culture medium per well (DMEM/F12 plus 10% human serum). Cells in group 1, the control group, was not treated with PFA. Cells in groups 2, 3, and 4 were incubated for 15 min. with 2%, 2%, and 4% PFA, respectively. PFA remained in the wells of group 2 and PFA was removed from groups 3 and 4 by washing 3 times with 100 μl Cell culture medium. Luciferase catalyzed ATP luminescence was measured as per CellTiter-Glo 3D manufacturer's instructions.
Luminescence was measured with a BioTek Synergy LX plate reader (Agilent, Santa Clara, CA, U.S.A.) and calculations were performed to quantify, measure, and/or correlate ATP level with cell viability.
We also used relative luminescence unit (RLU) as arbitrary units to calculate ATP level to cell viability.

[5] = 2% to 4% formalin

Molecule: Triton X
- ATP release ([1]; 0.5% Triton X alone for 10 minutes, no PFA, RLUs similar to lysis buffer): complete ATP release

Molecule: paraformaldehyde [PFA]
- RLU (ATP luminescence) Avg. ([2]; PFA 0.06%, average over serum levels): 47,729 RLU
- RLU (ATP luminescence) ([2]; PFA 0.06%, serum 0%): 39,815 RLU
- RLU (ATP luminescence) ([2]; PFA 0.06%, serum 1%): 46,022 RLU
- RLU (ATP luminescence) ([2]; PFA 0.06%, serum 5%): 51,674 RLU
- RLU (ATP luminescence) ([2]; PFA 0.06%, serum 25%): 53,405 RLU
- RLU (ATP luminescence) Avg. ([2]; PFA 0.25%, average over serum levels): 58,470 RLU
- RLU (ATP luminescence) ([2]; PFA 0.25%, serum 0%): 44,249 RLU
- RLU (ATP luminescence) ([2]; PFA 0.25%, serum 1%): 61,899 RLU
- RLU (ATP luminescence) ([2]; PFA 0.25%, serum 5%): 59,651 RLU
- RLU (ATP luminescence) ([2]; PFA 0.25%, serum 25%): 68,082 RLU
- RLU (ATP luminescence) Avg. ([2]; PFA 1%, average over serum levels): 40,598 RLU
- RLU (ATP luminescence) ([2]; PFA 1%, serum 0%): 38,892 RLU
- RLU (ATP luminescence) ([2]; PFA 1%, serum 1%): 45,576 RLU
- RLU (ATP luminescence) ([2]; PFA 1%, serum 5%): 34,194 RLU
- RLU (ATP luminescence) ([2]; PFA 1%, serum 25%): 43,731 RLU
- RLU (ATP luminescence) Avg. ([2]; PFA 4%, average over serum levels): 26,464 RLU
- RLU (ATP luminescence) ([2]; PFA 4%, serum 0%): 22,097 RLU
- RLU (ATP luminescence) ([2]; PFA 4%, serum 1%): 34,860 RLU
- RLU (ATP luminescence) ([2]; PFA 4%, serum 5%): 23,912 RLU
- RLU (ATP luminescence) ([2]; PFA 4%, serum 25%): 24,987 RLU
- RLU (ATP luminescence) Avg. ([2]; average over PFA concentrations, serum 0%): 36,263 RLU
- RLU (ATP luminescence) Avg. ([2]; average over PFA concentrations, serum 1%): 47,089 RLU
- RLU (ATP luminescence) Avg. ([2]; average over PFA concentrations, serum 5%): 42,358 RLU
- RLU (ATP luminescence) Avg. ([2]; average over PFA concentrations, serum 25%): 47,551 RLU
- RLU (ATP luminescence) Avg. ([2]; average over all PFA concentrations and serum levels): 43,315 RLU
- luciferase activity blocked ([3]; 1% PFA): about 90%
- luciferase activity blocked ([3]; 4% PFA): almost completely blocked
- change of RLUs ([3]; up to 0.25% PFA added to the CellTiter-Glo solution): did not change the RLUs
- ATP released into the extracellular fluid ([1]; 0.2% and 1% PFA, then 0.5% Triton X, same effect after cell lysis buffer): inhibited in a dose-dependent manner
- ATP leakage into the extracellular fluid ([1]; 0.2% or 1% PFA, without Triton X): neither 0.2% nor 1% PFA lead to some ATP leakage
- ATP luminescence compared with the control group [4]: less than half of the control group

Molecule: C=O [formalin]
- ATP still detectable in lysed cells after fixation [5]: almost half
